The numbers were not newly measured in PMC7503219 (International journal of hematology, 2019), which cites them from elsewhere.

The subject of the series is GATA-1low mice. Particulars: GATA-1 mouse model of PMF.

Regarding `N#CCCN` [BAPN, β-aminopropionitrile], the “effect on myelofibrotic phenotype” value is “reduced the pathogenesis of the myelofibrotic phenotype”.
